“And” between values parts separate entries of the source, which are not always exact repeats. Equal entries are not always repeated. Where two headings read alike, the source gives them in different places. Where a SMILES comes first, the peptide text is derived from it. [ ]: non-standard residue; d: D form.
What was measured:
[1] = Plasma pharmacokinetics of the APi2355 SAIB formulation over 42 days after single-dose subcutaneous administration; format: in vivo, male Sprague Dawley rats; conditions: for Tmax: sc
Method: (§1) The plasma pharmacokinetics of the Cav-1 peptide (APi2355) SAIB formulation prepared according to Example 1 (5.66% w/w APi2355 75.47% w/w SAIB and 18.87% w/w NMP to provide 7% w/w APi2355 to 93% w/w SAIB) were assessed over 42 days after a single-dose subcutaneous administration to male Sprague Dawley rats. The rats (n=6) received one of three batches of the APi2355 SAIB formulations prepared according to Example 1 at a dose of 2.0 mg/kg of APi2355 in 0.033 mL/kg (concentration 60.0 mg/mL). Control group of rats (n=2) received an injection of vehicle formulation containing no APi2355.
Animals were assigned to groups by a stratified randomization scheme designed to achieve similar group mean body weights. The animals were acclimated to their designated housing for at least 5 days before the day dosing. All formulations were administered in a single dose by dorsal subcutaneous (SC) injection on day 0. […] Whole blood samples (40-50 μl, by tail nick) were collected from all animals in control group at pre-dose and at 1 h and 1 day post-treatment. Blood was collected into K2EDTA tubes. Tubes were mixed gently after blood collection, chilled and centrifuged at 3000 rpm and 4° C., within 30 minutes upon collection. The resultant plasma was separated, transferred to uniquely labeled polypropylene tubes and frozen at −20° C. Plasma and tissue samples were analyzed for concentration of APi2355 using a qualified analytical procedure for LC/MS/MS.
(§2) Terminal whole blood samples (maximal volume by cardiac stick) and tissues were collected from all animals on day 42 post-treatment. Tissues included tissues from heart, liver, kidney, lung, and injection site skin patches. Additionally, lungs were processed for bronchial lavage samples. Tissue samples were analyzed for APi2355 by LC/MS/MS.

[2] = APi2355 concentrations in various tissues at 42 days post treatment (LC/MS/MS); format: in vivo; conditions: male, Sprague Dawley, rat, sc, 2 mg/kg, mean of 6 rats, single SC 2.0 mg/kg in SAIB formulation
Method: as §1
Animals were assigned to groups by a stratified randomization scheme designed to achieve similar group mean body weights. The animals were acclimated to their designated housing for at least 5 days before the day dosing. All formulations were administered in a single dose by dorsal subcutaneous (SC) injection on day 0. Whole blood samples (40-50 μl) were collected from all animals in APi2355 treated group at pre-dose and 1 h, 2 h, 4 h, 8 h, 1 day, 2 days, 4 days, 7 days, 10 days, 14 days, 21 days, 29 days, and 35 days post-treatment. Whole blood samples (40-50 μl, by tail nick) were collected from all animals in control group at pre-dose and at 1 h and 1 day post-treatment. Blood was collected into K2EDTA tubes. Tubes were mixed gently after blood collection, chilled and centrifuged at 3000 rpm and 4° C., within 30 minutes upon collection. The resultant plasma was separated, transferred to uniquely labeled polypropylene tubes and frozen at −20° C. Plasma and tissue samples were analyzed for concentration of APi2355 using a qualified analytical procedure for LC/MS/MS.
as §2

[3] = individual rats, single SC 2.0 mg/kg APi2355 in SAIB formulation, 2 mg/kg
[4] = rat plasma, single SC 2.0 mg/kg in SAIB formulation

With `CC(=O)N[C@H](C)C(=O)N[C@H](C)C(=O)N[C@@H](CCC(=O)O)C(=O)NCC(=O)N[C@@H](CCCCN)C(=O)N[C@@H](C)C(=O)N[C@@H](CO)C(=O)N[C@@H](Cc1ccccc1)C(=O)N[C@H](C(=O)N[C@H](C(=O)N[C@@H](Cc1ccccc1)C(=O)N[C@H](C(=O)N[C@H](C(=O)N[C@H](C(=O)N[C@@H](CCCCN)C(=O)NCC(=O)N[C@@H](CO)C(=O)N[C@H](C)C(=O)N[C@H](C)C(N)=O)[C@@H](C)O)C(C)C)[C@@H](C)O)[C@@H](C)O)[C@@H](C)O` [APi2355, Ac-aaEGKASFTTFTVTKGSaa-NH2] (Ac-[dA][dA]EGKASFTTFTVTKGS[dA][dA]-NH2) the “AUC0-14, Mean” value ([1]; dose to day 14, rat plasma, single SC 2.0 mg/kg in SAIB formulation) was 126 ng·days/mL, the “AUC0-22, Mean” value ([1]; dose to day 22, rat plasma, single SC 2.0 mg/kg in SAIB formulation) was 146 ng·days/mL and the “AUCinf, Mean” value ([1]; extrapolated to infinity (AUClast + Clast/λz), rat plasma, single SC 2.0 mg/kg in SAIB formulation) was 183 ng·days/mL. For the same compound, the CL/F ([1]; in vivo, apparent plasma clearance, rat, single SC 2.0 mg/kg in SAIB formulation) was 6.94 mL/min/kg, the Vd/F ([1]; in vivo, apparent volume of distribution, terminal phase, rat, single SC 2.0 mg/kg in SAIB formulation, read-out: Vz/F, Mean) was 133 L/kg and the AUC(0-t) ([1]; in vivo, log/linear trapezoidal method, rat plasma, single SC 2.0 mg/kg in SAIB formulation, read-out: AUClast, Mean (converted)) was 3940 ng·h/mL. For the same compound, the Cmax ([1]; in vivo, rat plasma, single SC 2.0 mg/kg APi2355 in SAIB formulation) was 477 ng/mL, the half-life ([1]; in vivo, rat plasma, single SC 2.0 mg/kg in SAIB formulation, read-out: Half-life (terminal), Mean (converted)) was 222 h and the MRT last ([1]; in vivo, rat plasma, single SC 2.0 mg/kg in SAIB formulation, read-out: MRTlast, Mean (converted)) was 188 h. The “APi2355 plasma concentration 1 hr post-treatment” value [1, 3] was 202.00 ng/mL and 232.90 ng/mL and 109.02 ng/mL and 101.53 ng/mL and 84.70 ng/mL and 557.93 ng/mL, the “APi2355 plasma concentration 2 hr post-treatment” value [1, 3] was 884.98 ng/mL and 111.43 ng/mL and 37.62 ng/mL and 317.55 ng/mL and 539.82 ng/mL and 497.89 ng/mL and the “APi2355 plasma concentration 4 hr post-treatment” value [1, 3] was 26.95 ng/mL and 102.25 ng/mL and 328.27 ng/mL and 164.91 ng/mL and 97.42 ng/mL and 52.01 ng/mL. For the same compound, the “APi2355 plasma concentration 8 hr post-treatment” value [1, 3] was 23.90 ng/mL and 54.20 ng/mL and 80.69 ng/mL and 75.60 ng/mL and 47.06 ng/mL and 39.24 ng/mL, the “APi2355 plasma concentration 1 day post-treatment” value [1, 3] was 10.32 ng/mL and 11.86 ng/mL and 20.55 ng/mL and 12.72 ng/mL and 19.85 ng/mL and 25.11 ng/mL and the “APi2355 plasma concentration 2 day post-treatment” value [1, 3] was 6.13 ng/mL and 3.87 ng/mL and 2.54 ng/mL and 8.72 ng/mL and 14.40 ng/mL and 6.90 ng/mL. For the same compound, the “APi2355 plasma concentration 4 day post-treatment” value [1, 3] was 4.65 ng/mL and 3.40 ng/mL and 1.29 ng/mL and 2.17 ng/mL and 1.84 ng/mL and 1.41 ng/mL, the “APi2355 plasma concentration 7 day post-treatment” value [1, 3] was 15.91 ng/mL and 5.07 ng/mL and 2.40 ng/mL and 2.14 ng/mL and 5.18 ng/mL and 1.44 ng/mL and the “APi2355 plasma concentration 10 day post-treatment” value [1, 3] was 2.09 ng/mL and 2.04 ng/mL and 10.43 ng/mL and 5.54 ng/mL and 2.38 ng/mL and 1.58 ng/mL. For the same compound, the “APi2355 plasma concentration 14 day post-treatment” value [1, 3] was 1.66 ng/mL and 1.24 ng/mL and 7.00 ng/mL and 1.83 ng/mL and 1.64 ng/mL and 3.04 ng/mL, the “APi2355 plasma concentration 22 day post-treatment” value [1, 3] was 1.68 ng/mL and 1.87 ng/mL and 2.49 ng/mL and 5.68 ng/mL and 1.98 ng/mL and 1.93 ng/mL and the “APi2355 plasma concentration 29 day post-treatment” value [1, 3] was 0.98 ng/mL and 0.50 ng/mL and 0.85 ng/mL and 0.65 ng/mL and 0.58 ng/mL and 0.16 ng/mL. The “APi2355 plasma concentration 35 day post-treatment” value [1, 3] was 0.81 ng/mL and 1.13 ng/mL and 0.78 ng/mL and 0.10 ng/mL and 0.72 ng/mL and 4.20 ng/mL, the “APi2355 plasma concentration 42 day post-treatment” value [1, 3] was 0.88 ng/mL and 0.29 ng/mL and 0.15 ng/mL and 0.00 ng/mL (2×) and 0.04 ng/mL and the “Clast, Mean” value ([1]; last measurable concentration, rat plasma, single SC 2.0 mg/kg in SAIB formulation) was 0.942 ng/mL. For the same compound, the level at 1 h ([1]; male, Sprague Dawley, rat, plasma, mean of 6 rats, single SC 2.0 mg/kg APi2355 in SAIB formulation, read-out: APi2355 plasma concentration 1 hr post-treatment, Mean) was 215 ng/mL, the level at 2 h ([1]; male, Sprague Dawley, rat, plasma, mean of 6 rats, single SC 2.0 mg/kg APi2355 in SAIB formulation, read-out: APi2355 plasma concentration 2 hr post-treatment, Mean) was 398 ng/mL and the level at 4 h ([1]; male, Sprague Dawley, rat, plasma, mean of 6 rats, single SC 2.0 mg/kg APi2355 in SAIB formulation, read-out: APi2355 plasma concentration 4 hr post-treatment, Mean) was 129 ng/mL. For the same compound, the level at 8 h ([1]; male, Sprague Dawley, rat, plasma, mean of 6 rats, single SC 2.0 mg/kg APi2355 in SAIB formulation, read-out: APi2355 plasma concentration 8 hr post-treatment, Mean) was 53.5 ng/mL, the level at 24 h ([1]; male, Sprague Dawley, rat, plasma, mean of 6 rats, single SC 2.0 mg/kg APi2355 in SAIB formulation, read-out: APi2355 plasma concentration 1 day post-treatment, Mean) was 16.7 ng/mL and the level at 48 h ([1]; male, Sprague Dawley, rat, plasma, mean of 6 rats, single SC 2.0 mg/kg APi2355 in SAIB formulation, read-out: APi2355 plasma concentration 2 day post-treatment, Mean) was 7.09 ng/mL. For the same compound, the level at 96 h ([1]; male, Sprague Dawley, rat, plasma, mean of 6 rats, single SC 2.0 mg/kg APi2355 in SAIB formulation, read-out: APi2355 plasma concentration 4 day post-treatment, Mean) was 2.46 ng/mL, the level at 168 h ([1]; male, Sprague Dawley, rat, plasma, mean of 6 rats, single SC 2.0 mg/kg APi2355 in SAIB formulation, read-out: APi2355 plasma concentration 7 day post-treatment, Mean) was 5.36 ng/mL and the level at 240 h ([1]; male, Sprague Dawley, rat, plasma, mean of 6 rats, single SC 2.0 mg/kg APi2355 in SAIB formulation, read-out: APi2355 plasma concentration 10 day post-treatment, Mean) was 4.01 ng/mL. The level at 336 h ([1]; male, Sprague Dawley, rat, plasma, mean of 6 rats, single SC 2.0 mg/kg APi2355 in SAIB formulation, read-out: APi2355 plasma concentration 14 day post-treatment, Mean) was 2.73 ng/mL, the level at 528 h ([1]; male, Sprague Dawley, rat, plasma, mean of 6 rats, single SC 2.0 mg/kg APi2355 in SAIB formulation, read-out: APi2355 plasma concentration 22 day post-treatment, Mean) was 2.61 ng/mL and the level at 696 h ([1]; male, Sprague Dawley, rat, plasma, mean of 6 rats, single SC 2.0 mg/kg APi2355 in SAIB formulation, read-out: APi2355 plasma concentration 29 day post-treatment, Mean) was 0.62 ng/mL. For the same compound, the level at 840 h ([1]; male, Sprague Dawley, rat, plasma, mean of 6 rats, single SC 2.0 mg/kg APi2355 in SAIB formulation, read-out: APi2355 plasma concentration 35 day post-treatment, Mean) was 1.29 ng/mL, the level at 1008 h ([1]; male, Sprague Dawley, rat, plasma, mean of 6 rats, single SC 2.0 mg/kg APi2355 in SAIB formulation, read-out: APi2355 plasma concentration 42 day post-treatment, Mean) was 0.23 ng/mL and the “APi2355 detectable in the plasma following administration” value ([1]; number of rats, single SC 2.0 mg/kg in SAIB formulation) was 4 out of 6. For the same compound, the “% AUC Extrap, Mean” value [1, 4] was 9.00%, the “extrapolated AUC of AUCinf” value [1, 4] was < 20% and the “fraction of the total exposure of APi2355 occurring in the first 3 weeks after SC administration” value [1, 4] was “Approximately ⅔”. For the same compound, the Tmax ([1]; rat, in vivo, 2 mg/kg, rat plasma, single SC 2.0 mg/kg APi2355 in SAIB formulation, read-out: Tmax, Mean (converted)) was 1.99 h, the Tmax ([1]; rat, in vivo, 2 mg/kg, rat plasma, single SC 2.0 mg/kg APi2355 in SAIB formulation, read-out: Tmax, median (converted)) was 1.99 h and the “Tlast, Mean” value ([1]; time of last quantifiable concentration, rat plasma, single SC 2.0 mg/kg in SAIB formulation) was 39.7 days. For the same compound, the level at 1008 h ([2]; bronchoalveolar lavage fluid (BALF), read-out: Concentration in BALF (bronchoalveolar lavage fluid), Mean) was 0.99 ng/mL, the tissue level at time at 1008 h ([2]; heart, read-out: Concentration in Heart, Mean) was 12.1 ng/g and the tissue level at time at 1008 h ([2]; injection site skin, injection site skin, read-out: Concentration in Skin, Mean) was 4.95 ng/g. The tissue level at time at 1008 h ([2]; kidney, read-out: Concentration in Kidney, Mean) was 53.2 ng/g, the tissue level at time at 1008 h ([2]; liver, read-out: Concentration in Liver, Mean) was 1.23 ng/g and the tissue level at time at 1008 h ([2]; lung, read-out: Concentration in Lung, Mean) was 68 ng/g.
